In US10681909B2, “Herbicidal triazoles” (FMC Corporation, priority 2014, dated 2020):

What was measured:
Settings in all cases: scale 0 to 100
[1] = test system: arrowleaf sida; experiment: Test E postemergence; format: in vivo, Sida rhombifolia
Source text: (§1) Seeds of plant species selected from corn (Zea mays), soybean (Glycine max), lambsquarters (Chenopodium album), poinsettia, wild (wild poinsettia, Euphorbia heterophylla), pigweed, palmer (palmer pigweed, Amaranthus palmeri), waterhemp (common waterhemp, Amaranthus rudis), surinam grass (Brachiaria decumbens), crabgrass, large (large crabgrass, Digitaria sanguinalis), crabgrass, Brazilian (Brazilian crabgrass, Digitaria horizontalis), panicum, fall (fall panicum, Panicum dichotomiflorum), foxtail, giant (giant foxtail, Setaria faberii), foxtail, green (green foxtail, Setaria viridis), goosegrass (Eleusine indica), johnsongrass (Sorghum halepense), ragweed (common ragweed, Ambrosia elatior), barnyardgrass (Echinochloa crus-galli), sandbur (southern sandbur, Cenchrus echinatus), arrowleaf sida (Sida rhombifolia), ryegrass, Italian (Italian ryegrass, Lolium multiflorum), dayflower, VA (Virginia dayflower, Commelina virginica), field bindweed (Convolvulus arvensis), cocklebur (common cocklebur, Xanthium strumarium), morningglory (Ipomoea coccinea), nightshade (eastern black nightshade, Solanum ptycanthum), kochia (Kochia scoparia), nutsedge, yellow (yellow nutsedge, Cyperus esculentus), smartweed (ladysthumb smartweed, Polygonum persicaria), velvetleaf (Abutilon theophrasti), horseweed (Conyza canadensis), and beggarticks (hairy beggarticks, Bidens pilosa), were planted into a silt loam soil and treated preemergence with test chemicals formulated in a non-phytotoxic solvent mixture which included a surfactant.
(§2) At the same time, plants from these crop and weed species and also waterhemp_RES1, (ALS & Triazine resistant common waterhemp, Amaranthus rudis), and waterhemp_RES2, (ALS & HPPD resistant common waterhemp, Amaranthus rudis) were planted in pots containing Sunshine Redi-Earth® planting medium comprising spaghnum peat moss, vermiculite, starter nutrients and dolomitic limestone were treated with postemergence applications of test chemicals formulated in the same manner. Plants ranged in height from 2 to 18 cm for postemergence treatments (1- to 4-leaf stage). Treated plants and controls were maintained in a greenhouse for 14 to 21 d, after which time all species were compared to controls and visually evaluated. Plant response ratings, summarized in Table E, are based on a scale of 0 to 100 where 0 is no effect and 100 is complete control. A dash (-) response means no test result.

[2] = test system: waterhemp; experiment: Test E postemergence; format: in vivo, Amaranthus rudis
Source text: as §1, §2

[3] = test system: waterhemp_RES1 (ALS & Triazine resistant common waterhemp); experiment: Test E postemergence; format: in vivo, Amaranthus rudis
Source text: as §1, §2

[4] = test system: waterhemp_RES2 (ALS & HPPD resistant common waterhemp); experiment: Test E postemergence; format: in vivo, Amaranthus rudis
Source text: as §1, §2

[5] = test system: dayflower, VA; experiment: Test E postemergence; format: in vivo, Commelina virginica
Source text: as §1, §2

[6] = test system: soybean; experiment: Test E postemergence; format: in vivo, Glycine max
Source text: as §1, §2

[7] = test system: ryegrass, Italian; experiment: Test E preemergence; format: in vivo, Lolium multiflorum
Source text: as §1, §2

[8] = test system: johnsongrass; experiment: Test E preemergence; format: in vivo, Sorghum halepense
Source text: as §1, §2

[9] = test system: foxtail, giant; experiment: Test E preemergence; format: in vivo, Setaria faberii
Source text: as §1, §2

[10] = test system: sandbur; experiment: Test E preemergence; format: in vivo, Cenchrus echinatus
Source text: as §1, §2

[11] = test system: foxtail, green; experiment: Test E preemergence; format: in vivo, Setaria viridis
Source text: as §1, §2

[12] = test system: pigweed, palmer; experiment: Test E preemergence; format: in vivo, Amaranthus palmeri
Source text: as §1, §2

[13] = test system: lambsquarters; experiment: Test E preemergence; format: in vivo, Chenopodium album
Source text: as §1, §2

[14] = test system: field bindweed; experiment: Test E preemergence; format: in vivo, Convolvulus arvensis
Source text: as §1, §2

[15] = test system: velvetleaf; experiment: Test E preemergence; format: in vivo, Abutilon theophrasti
Source text: as §1, §2

[16] = test system: arrowleaf sida; experiment: Test E preemergence; format: in vivo, Sida rhombifolia
Source text: as §1, §2

[17] = test system: panicum, fall; experiment: Test E preemergence; format: in vivo, Panicum dichotomiflorum
Source text: as §1, §2

[18] = test system: nightshade; experiment: Test E preemergence; format: in vivo, Solanum ptycanthum
Source text: as §1, §2

[19] = test system: nutsedge, yellow; experiment: Test E preemergence; format: in vivo, Cyperus esculentus
Source text: as §1, §2

SMILES: COc1nc(-c2ccc(Cl)cc2)nn1Cc1ccnc(C(F)(F)F)c1 [Compound 28]
- Plant response rating ([1]; 31 g ai/ha): 70
- Plant response rating ([1]; 62 g ai/ha): 80
- Plant response rating ([1]; 125 g ai/ha): 80
- Plant response rating ([1]; 250 g ai/ha): 75
- Plant response rating ([2]; 31 g ai/ha): 90
- Plant response rating ([2]; 62 g ai/ha): 90
- Plant response rating ([2]; 125 g ai/ha): 95
- Plant response rating ([2]; 250 g ai/ha): 95
- Plant response rating ([3]; 31 g ai/ha): 95
- Plant response rating ([3]; 62 g ai/ha): 95
- Plant response rating ([3]; 125 g ai/ha): 95
- Plant response rating ([3]; 250 g ai/ha): 95
- Plant response rating ([4]; 31 g ai/ha): 95
- Plant response rating ([4]; 62 g ai/ha): 90
- Plant response rating ([4]; 125 g ai/ha): 90
- Plant response rating ([4]; 250 g ai/ha): 95
- Plant response rating ([5]; 31 g ai/ha): 60
- Plant response rating ([5]; 62 g ai/ha): 70
- Plant response rating ([5]; 125 g ai/ha): 70
- Plant response rating ([5]; 250 g ai/ha): 70
- Plant response rating ([6]; 31 g ai/ha): 70
- Plant response rating ([6]; 62 g ai/ha): 75
- Plant response rating ([6]; 125 g ai/ha): 95
- Plant response rating ([6]; 250 g ai/ha): 80

SMILES: CCOc1nc(-c2ccccc2)nn1Cc1ccnc(C(F)(F)F)c1 [Compound 27]
- Plant response rating ([7]; 16 g ai/ha): 0
- Plant response rating ([7]; 31 g ai/ha): 20
- Plant response rating ([7]; 62 g ai/ha): 60
- Plant response rating ([7]; 125 g ai/ha): 95
- Plant response rating ([8]; 16 g ai/ha): 100
- Plant response rating ([8]; 31 g ai/ha): 95
- Plant response rating ([8]; 62 g ai/ha): 100
- Plant response rating ([8]; 125 g ai/ha): 100
- Plant response rating ([1]; 16 g ai/ha): 70
- Plant response rating ([1]; 31 g ai/ha): 80
- Plant response rating ([1]; 62 g ai/ha): 90
- Plant response rating ([1]; 125 g ai/ha): 100
- Plant response rating ([9]; 16 g ai/ha): 75
- Plant response rating ([9]; 31 g ai/ha): 95
- Plant response rating ([9]; 62 g ai/ha): 100
- Plant response rating ([9]; 125 g ai/ha): 100
- Plant response rating ([10]; 16 g ai/ha): 35
- Plant response rating ([10]; 31 g ai/ha): 35
- Plant response rating ([10]; 62 g ai/ha): 75
- Plant response rating ([10]; 125 g ai/ha): 98
- Plant response rating ([11]; 16 g ai/ha): 75
- Plant response rating ([11]; 31 g ai/ha): 100
- Plant response rating ([11]; 62 g ai/ha): 100
- Plant response rating ([11]; 125 g ai/ha): 100
- Plant response rating ([12]; 16 g ai/ha): 85
- Plant response rating ([12]; 31 g ai/ha): 100
- Plant response rating ([12]; 62 g ai/ha): 100
- Plant response rating ([12]; 125 g ai/ha): 100
- Plant response rating ([13]; 16 g ai/ha): 80
- Plant response rating ([13]; 31 g ai/ha): 100
- Plant response rating ([13]; 62 g ai/ha): 100
- Plant response rating ([13]; 125 g ai/ha): 100
- Plant response rating ([14]; 16 g ai/ha): 0
- Plant response rating ([14]; 31 g ai/ha): 0
- Plant response rating ([14]; 62 g ai/ha): 60
- Plant response rating ([14]; 125 g ai/ha): 90
- Plant response rating ([15]; 16 g ai/ha): 35
- Plant response rating ([15]; 31 g ai/ha): 50
- Plant response rating ([15]; 62 g ai/ha): 50
- Plant response rating ([15]; 125 g ai/ha): 95
- Plant response rating ([2]; 16 g ai/ha): 95
- Plant response rating ([2]; 31 g ai/ha): 98
- Plant response rating ([2]; 62 g ai/ha): 95
- Plant response rating ([2]; 125 g ai/ha): 95
- Plant response rating ([3]; 16 g ai/ha): 95
- Plant response rating ([3]; 31 g ai/ha): 95
- Plant response rating ([3]; 62 g ai/ha): 95
- Plant response rating ([3]; 125 g ai/ha): 98
- Plant response rating ([4]; 16 g ai/ha): 90
- Plant response rating ([4]; 31 g ai/ha): 95
- Plant response rating ([4]; 62 g ai/ha): 90
- Plant response rating ([4]; 125 g ai/ha): 90
- Plant response rating ([5]; 16 g ai/ha): 50
- Plant response rating ([5]; 31 g ai/ha): 60
- Plant response rating ([5]; 62 g ai/ha): 70
- Plant response rating ([5]; 125 g ai/ha): 75
- Plant response rating ([16]; 16 g ai/ha): 20
- Plant response rating ([16]; 31 g ai/ha): 20
- Plant response rating ([16]; 62 g ai/ha): 75
- Plant response rating ([16]; 125 g ai/ha): 90
- Plant response rating ([17]; 16 g ai/ha): 65
- Plant response rating ([17]; 31 g ai/ha): 100
- Plant response rating ([17]; 62 g ai/ha): 100
- Plant response rating ([17]; 125 g ai/ha): 100
- Plant response rating ([18]; 16 g ai/ha): 0
- Plant response rating ([18]; 31 g ai/ha): 50
- Plant response rating ([18]; 62 g ai/ha): 98
- Plant response rating ([18]; 125 g ai/ha): 100
- Plant response rating ([19]; 16 g ai/ha): 0
- Plant response rating ([19]; 31 g ai/ha): 0
- Plant response rating ([19]; 62 g ai/ha): 0
- Plant response rating ([19]; 125 g ai/ha): 15
- Plant response rating ([6]; 16 g ai/ha): 70
- Plant response rating ([6]; 31 g ai/ha): 80
- Plant response rating ([6]; 62 g ai/ha): 80
- Plant response rating ([6]; 125 g ai/ha): 95
